The values that follow come from patent US8314253B2, “Bridged tetrahydronaphthalene derivatives” (Actelion Pharmaceuticals Ltd., priority 2008, dated 2012).

Each structure is given as a SMILES string.

For the experiment, the system named is human Cav3.1 Cav3.2 or Cav3.3 channel. Nature of the experiment: In vitro assay T channel (FLIPR, Ca2+-induced fluorescence). Type of experiment: cell-based. The following applies: HEK293 cells expressing human Cav3.1 Cav3.2 or Cav3.3; 10 mM Ca2+; determined up to 10 μM; read-out: T channel antagonistic activity IC50. As to the method:
Human embryonic kidney (HEK293) cells expressing the human Cav3.1 Cav3.2 or Cav3.3 channel, respectively, are grown in culture medium (DMEM containing 10% heat-inactivated fetal calf serum (FCS), 100 U/ml penicillin, 100 μg/ml streptomycin and 1 mg/ml G418). The cells are seeded at 20.000 cells/well into 384-well black clear bottom sterile plates (poly-L-lysine-coated, Becton Dickinson). The seeded plates are incubated overnight at 37° C. in 5% CO2. The Ca^2+ solution is prepared as 100 mM stock solution in 100 mM tetraethylammoniumchloride (TEA-chloride), 50 mM HEPES, 2.5 mM CaCl2, 5 mM KCl, 1 mM MgCl2, adjusted to pH 7.2 with TEA-hydroxide, for use in the assay at a final concentration of 10 mM. […] Fluorescence is measured for each well at 2 second intervals for 8 minutes, and the area under the curve of each fluorescence peak is compared to the area of the fluorescence peak induced by 10 mM Ca^2+ with vehicle in place of antagonist.
The term IC50 denotes the concentration that inhibits the measured activity by half. Regarding `O[C@@]1(CCN2CCCC(c3nc4ccccc4[nH]3)C2)C[C@H]2CC[C@@H]1c1ccccc12` (relative stereo) [Example 7, (1R*,8R*,9R*)-9-{2-[(3RS)-3-(1H-Benzoimidazol-2-yl)-piperidin-1-yl]-ethyl}-tricyclo[6.2.2.0^2,7]dodeca-2,4,6-trien-9-ol], the IC50 worked out at 2260 nM.

Take `CO[C@@]1(CCN(C)CCCc2nc3ccccc3[nH]2)C[C@H]2CC[C@@H]1c1ccccc12` (relative stereo) [Example 4, rac-(1R*,8R*,9R*)-[3-(1H-Benzoimidazol-2-yl)-propyl]-[2-(9-methoxy-tricyclo[6.2.2.0^2,7]dodeca-2,4,6-trien-9-yl)-ethyl]-methyl-amine]: the IC50 turned out to be 1220 nM. On to `COc1cccc2[nH]c(CCCN(C)CCC3(OC(=O)C(C)C)CC4CCCC3c3ccccc34)nc12` [Example 13A, Isobutyric acid (1S,8S,12S)-12-(2-{[3-(4-Methoxy-1H-benzoimidazol-2-yl)-propyl]-methyl-amino}-ethyl)-tricyclo[6.3.2.0^2,7]trideca-2,4,6-trien-12-yl ester or isobutyric acid (1R,8R,12R)-12-(2-{[3-(4-methoxy-1H-benzoimidazol-2-yl)-propyl]-methyl-amino}-ethyl)-tricyclo[6.3.2.0^2,7]trideca-2,4,6-trien-12-yl ester], for which the IC50 came to 544 nM. In the case of `CN(CCCc1nc2ccccc2[nH]1)CCC1(O)CC2CCC1c1ccccc12` (single isomer, unassigned) [Example 2, (1S,8S,9S)-9-(2-{[3-(1H-Benzoimidazol-2-yl)-propyl]-methyl-amino}-ethyl)-tricyclo[6.2.2.0^2,7]dodeca-2,4,6-trien-9-ol or (1R,8R,9R)-9-(2-{[3-(1H-benzoimidazol-2-yl)-propyl]-methyl-amino}-ethyl)-tricyclo[6.2.2.0^2,7]dodeca-2,4,6-trien-9-ol] it was 2900 nM; in that of `COc1ccc(C)c2[nH]c(CCCN(C)CC[C@@]3(OC(=O)CC(F)(F)F)C[C@@H]4CCC[C@H]3c3ccccc34)nc12` [Example 14B, 3,3,3-Trifluoro-propionic acid (1S,8S,12S)-12-(2-{[3-(4-methoxy-7-methyl-1H-benzoimidazol-2-yl)-propyl]-methyl-amino}-ethyl)-tricyclo[6.3.2.0^2,7]trideca-2,4,6-trien-12-yl ester or 3,3,3-trifluoro-propionic acid (1R,8R,12R)-12-(2-{[3-(4-methoxy-7-methyl-1H-benzoimidazol-2-yl)-propyl]-methyl-amino}-ethyl)-tricyclo[6.3.2.0^2,7]trideca-2,4,6-trien-12-yl ester], 514 nM; in that of `CC(C)C(=O)O[C@@]1(CCN2CCC(c3ccccc3)(c3nc4ccccc4[nH]3)CC2)C[C@H]2CC[C@@H]1c1ccccc12` (relative stereo) [Example 8A, rac-Isobutyric acid (1R*,8R*,9R*)-9-{2-[4-(1H-benzoimidazol-2-yl)-4-phenyl-piperidin-1-yl]-ethyl}-tricyclo[6.2.2.0^2,7]dodeca-2,4,6-trien-9-yl ester], 6100 nM.

Regarding `CC(C)C(=O)OC1(CCN(C)CCCc2nc3ccccc3[nH]2)CC2CCC1c1ccccc12` [Example 2A, Isobutyric acid (1S,8S,9S)-9-(2-{[3-(1H-benzoimidazol-2-yl)-propyl]-methyl-amino}-ethyl)-tricyclo[6.2.2.0^2,7]dodeca-2,4,6-trien-9-yl ester or isobutyric acid (1R,8R,9R)-9-(2-{[3-(1H-benzoimidazol-2-yl)-propyl]-methyl-amino}-ethyl)-tricyclo[6.2.2.0^2,7]dodeca-2,4,6-trien-9-yl ester], the IC50 came out at 1790 nM. With `CN(CCCc1nc2ccccc2[nH]1)CC[C@]1(OC(=O)C2CC2)C[C@H]2CC[C@@H]1c1ccccc12` (relative stereo) [Example 1C, rac-Cyclopropanecarboxylic acid (1R*,8R*,9R*)-9-(2-{[3-(1H-benzoimidazol-2-yl)-propyl]-methyl-amino}-ethyl)-tricyclo[6.2.2.0^2,7]dodeca-2,4,6-trien-9-yl ester] the figure was 969 nM; with `COc1ccc(C)c2[nH]c(CCCN(C)CCC3(OC(=O)C(C)C)CC4CCCC3c3ccccc34)nc12` [Example 14A, Isobutyric acid (1S,8S,12S)-12-(2-{[3-(4-Methoxy-7-methyl-1H-benzoimidazol-2-yl)-propyl]-methyl-amino}-ethyl)-tricyclo[6.3.2.0^2,7]trideca-2,4,6-trien-12-yl ester or isobutyric acid (1R,8R,12R)-12-(2-{[3-(4-methoxy-7-methyl-1H-benzoimidazol-2-yl)-propyl]-methyl-amino}-ethyl)-tricyclo[6.3.2.0^2,7]trideca-2,4,6-trien-12-yl ester], 191 nM; with `CN(CCCc1nc2ccccc2[nH]1)CC[C@]1(O)C[C@H]2CC[C@@H]1c1ccccc12` (relative stereo) [Example 1, rac-(1R*,8R*,9R*)-9-(2-{[3-(1H-Benzoimidazol-2-yl)-propyl]-methyl-amino}-ethyl)-tricyclo[6.2.2.0^2,7]dodeca-2,4,6-trien-9-ol], 2850 nM. With `CN(CCCc1nc2ccccc2[nH]1)CCC1(O)CC2CCCC1c1ccccc12` (single isomer, unassigned) [Example 11, (1S,8S,12S)-12-(2-{[3-(1H-Benzoimidazol-2-yl)-propyl]-methyl-amino}-ethyl)-tricyclo[6.3.2.0^2,7]trideca-2,4,6-trien-12-ol or (1R,8R,12R)-12-(2-{[3-(1H-benzoimidazol-2-yl)-propyl]-methyl-amino}-ethyl)-tricyclo[6.3.2.0^2,7]trideca-2,4,6-trien-12-ol] the figure was 521 nM; with `COc1ccc(C)c2[nH]c(CCCN(C)CCC3(O)CC4CCCC3c3ccccc34)nc12` (single isomer, unassigned) [Example 14, (1S,8S,12S)-12-(2-{[3-(4-Methoxy-7-methyl-1H-benzoimidazol-2-yl)-propyl]-methyl-amino}-ethyl)-tricyclo[6.3.2.0^2,7]trideca-2,4,6-trien-12-ol or (1R,8R,12R)-12-(2-{[3-(4-methoxy-7-methyl-1H-benzoimidazol-2-yl)-propyl]-methyl-amino}-ethyl)-tricyclo[6.3.2.0^2,7]trideca-2,4,6-trien-12-ol], 736 nM. In the case of `CC(C)C(=O)O[C@@]1(CCN(C)CCCc2nc3ccccc3[nH]2)C[C@H]2CCC[C@@H]1c1ccccc12` (relative stereo) [Example 10B, rac-Isobutyric acid (1R*,8R*,12R*)-12-(2-{[3-(1H-benzoimidazol-2-yl)-propyl]-methyl-amino}-ethyl)-tricyclo[6.3.2.0^2,7]trideca-2,4,6-trien-12-yl ester] it was 1310 nM.

For the molecule `O[C@@]1(CCN2CCC(c3nc4ccccc4[nH]3)CC2)C[C@H]2CC[C@@H]1c1ccccc12` (relative stereo) [Example 6, rac-(1R*,8R*,9R*)-9-{2-[4-(1H-Benzoimidazol-2-yl)-piperidin-1-yl]-ethyl}-tricyclo[6.2.2.0^2,7]dodeca-2,4,6-trien-9-ol], the IC50 worked out at 1360 nM. With `CC(C)C(=O)O[C@@]1(CCN2CCC(c3nc4ccccc4[nH]3)CC2)C[C@H]2CC[C@@H]1c1ccccc12` (relative stereo) [Example 6A, rac-Isobutyric acid (1R*,8R*,9R*)-9-{2-[4-(1H-benzoimidazol-2-yl)-piperidin-1-yl]-ethyl}-tricyclo[6.2.2.0^2,7]dodeca-2,4,6-trien-9-yl ester] the figure was 751 nM. For the molecule `CC(C)C(=O)OC1(CCN(C)CCCc2nc3ccccc3[nH]2)CC2CCCC1c1ccccc12` [Example 12A, Isobutyric acid (1S,8S,12S)-12-(2-{[3-(1H-Benzoimidazol-2-yl)-propyl]-methyl-amino}-ethyl)-tricyclo[6.3.2.0^2,7]trideca-2,4,6-trien-12-yl ester or isobutyric acid (1R,8R,12R)-12-(2-{[3-(1H-benzoimidazol-2-yl)-propyl]-methyl-amino}-ethyl)-tricyclo[6.3.2.0^2,7]trideca-2,4,6-trien-12-yl ester], the IC50 amounted to 783 nM. With `CC(C)C(=O)O[C@]1(CCN(C)CCCc2nc3ccccc3[nH]2)C[C@H]2CC[C@@H]1c1ccccc12` (relative stereo) [Example 5A, rac-Isobutyric acid (1R*,8R*,9S*)-9-(2-{[3-(1H-benzoimidazol-2-yl)-propyl]-methyl-amino}-ethyl)-tricyclo[6.2.2.0^2,7]dodeca-2,4,6-trien-9-yl ester] the figure was 5180 nM; with `CN(CCCc1nc2ccccc2[nH]1)CC[C@@]1(O)C[C@H]2CC[C@@H]1c1ccccc12` (relative stereo) [Example 5, rac-(1R*,8R*,9S*)-9-(2-{[3-(1H-Benzoimidazol-2-yl)-propyl]-methyl-amino}-ethyl)-tricyclo[6.2.2.0^2,7]dodeca-2,4,6-trien-9-ol], above 10000 nM; with `O[C@@]1(CCN2CCC(c3ccccc3)(c3nc4ccccc4[nH]3)CC2)C[C@H]2CC[C@@H]1c1ccccc12` (relative stereo) [Example 8, rac-(1R*,8R*,9R*)-9-{2-[4-(1H-Benzoimidazol-2-yl)-4-phenyl-piperidin-1-yl]-ethyl}-tricyclo[6.2.2.0^2,7]dodeca-2,4,6-trien-9-ol], 953 nM.
